How the values were obtained:
ob/ob mice = assay: Anti-diabetic effects in ob/ob mice, a type 2 diabetic model; format: in vivo; details: 10 mg/kg/day p.o. once a day for 6 weeks; male ob/ob mice; vehicle group 7.1%
Procedure: Anti-diabetic effects in ob/ob mice, a type 2 diabetic model were evaluated as describe next.
Male 9-week-old ob/ob mice (Charls river) habituated for a week were housed individually and freely fed a normal chow (CE-2, Japan Clea). The test compound was suspended in 0.5% methylcellulose solution. Vehicle (0.5% methylcellulose) or the compound was orally administered (5 mL/kg) once a day for 6 weeks. At the end of the treatment, bloods were collected from tail vein. The levels of glycosylated hemoglobin were measured as an index of diabetes severity using automated GHb analyzer (TOSOH Corporation).

delta-5-desaturase = target: T1, delta-5-desaturase (Rattus norvegicus, UniProt Q920R3); assay: Inhibitory activity on delta-5-desaturase (rat liver microsomal fraction, 14C-eicosatrienoic acid, TLC); format: biochemical; details: test compound at 10 μM, room temperature, 120 minutes
T1 construct: the microsomal fraction of a rat river (10 μl), which had been diluted to 3 mg/ml; from tissue; host or cells: rat liver microsomal fraction
Outline: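 Rat liver microsomes (3 mg/ml before addition) incubated with test compound at 10 μM, NADH, ATP, CoA and 14C-eicosatrienoic acid in phosphate buffer pH 7.4 with BSA and glutathione, 120 min at room temperature. Lipids saponified, extracted, separated by reverse-phase TLC and imaged; % inhibition reported.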

[1] = test system: atherogenic diet fed apoE-deficient mice; assay: Anti-atherosclerotic and anti-obesity effects in atherogenic diet fed apoE-deficient mice; format: in vivo; details: 10 mg/kg/day p.o. for 15 weeks, male apoE-deficient mice on high fat diet, vehicle group taken as 100%; for Reduction in atherosclerotic lesion area (%): aorta, oil red O staining
Procedure: Assessments of anti-atherosclerotic effects and anti-obesity effects on atherogenic diet fed apoE-deficient mice were performed by the method described below.
Male apoE-deficient mice of 11-13 week-age (Jacson Lab) conditioned with ordinary diet (Research Diet) in separate cages were allowed to take high fat diet (Research Diet) at libitum for 14 weeks to thereby form atherosclerotic lesions in the aorta. The test compound suspended in 0.5% methyl cellulose solution was forcedly and orally administered to the mice at 10 ml/kg everyday for 15 weeks from 1 week prior to the start of the high fat diet feeding. Body weights were measured on the day of autopsy. The body weight reduction ratio of test compound-administered group was calculated taking the body weight of vehicle-administered group as 100%, to thereby obtain an index for anti-obesity effects. The aorta (from immediately above the aortic valve to the ventral branch of common iliac artery) removed under anesthesia was totally incised after removal of adipose tissue, etc. adhering to the outer membrane of the aorta, to thereby prepare an incised aorta specimen. After formalin fixing, the incised aorta specimen was subjected to staining with oil red O. The thus stained incised aorta specimen was photographed with a digital camera. Subsequently, image analysis using Image Pro program (Planetron, Inc.) was performed to determine the area of atherosclerotic lesions stained red and the total area of the incised specimen (the area of vascular inner wall). The ratio of atherosclerotic lesions (%) was calculated by dividing the area of atherosclerotic lesions by the area of vascular inner wall. The reduction ratio of the atherosclerotic lesion area (%) in test compound-administered group was calculated taking the area of atherosclerotic lesions in vehicle-administered group as 100%, to thereby obtain an index for anti-atherosclerotic effects. All the measurement of the ratio of atherosclerotic lesions was performed in a blind fashion.

T1 sequence (Q920R3 whole entry): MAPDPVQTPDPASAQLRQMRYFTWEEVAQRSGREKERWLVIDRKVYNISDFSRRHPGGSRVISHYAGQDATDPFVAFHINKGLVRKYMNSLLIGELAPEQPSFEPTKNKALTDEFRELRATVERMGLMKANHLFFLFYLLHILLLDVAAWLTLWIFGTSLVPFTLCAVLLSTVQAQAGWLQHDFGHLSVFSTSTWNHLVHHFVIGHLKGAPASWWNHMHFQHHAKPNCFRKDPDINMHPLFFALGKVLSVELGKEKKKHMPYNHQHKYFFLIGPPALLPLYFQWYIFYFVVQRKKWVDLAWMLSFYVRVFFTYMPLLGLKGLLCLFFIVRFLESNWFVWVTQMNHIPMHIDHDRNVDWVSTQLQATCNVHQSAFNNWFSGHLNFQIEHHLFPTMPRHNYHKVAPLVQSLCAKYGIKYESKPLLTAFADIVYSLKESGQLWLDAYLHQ

Compound | inhibition at 10 µM (delta-5-desaturase) | also measured
O=C1Cc2c(nc(OCC(F)(F)C(F)(F)F)n(-c3ccc(OCC(F)(F)F)cc3)c2=O)N1 [Example 326, 2-(2,2,3,3,3-Pentafluoropropoxy)-3-[4-(2,2,2-trifluoroethoxy)phenyl]-5,7-dihydro-3H-pyrrolo[2,3-d]pyrimidine-4,6-dione] | 102% | Glycosylated hemoglobin (%) (ob/ob mice): 6.0%; Reduction in atherosclerotic lesion area (%) [1]: 41%; Reduction in body weight (%) [1]: 11%
O=C1Cc2c(nc(SCC3CC3)n(-c3ccc(OCC(F)(F)F)cc3)c2=O)N1 [Example 297, 2-[(Cyclopropylmethyl)sulfanyl]-3-[4-(2,2,2-trifluoroethoxy)phenyl]-5,7-dihydro-3H-pyrrolo[2,3-d]pyrimidine-4,6-dione] | 101% | Reduction in atherosclerotic lesion area (%) [1]: 26%; Reduction in body weight (%) [1]: 8%
CCSc1nc2c(c(=O)n1-c1ccc(OCC(F)(F)C(F)(F)F)cc1)CC(=O)N2 [Example 269, 2-(Ethylsulfanyl)-3-[4-(2,2,3,3,3-pentafluoropropoxy)phenyl]-5,7-dihydro-3H-pyrrolo[2,3-d]pyrimidine-4,6-dione] | 99% | 
CCCSc1nc2[nH]ccc2c(=O)n1-c1ccc(OCC(F)(F)F)cc1 [Example 224, 2-(Propylsulfanyl)-3-[4-(2,2,2-trifluoroethoxy)phenyl]-3,7-dihydro-4H-pyrrolo[2,3-d]pyrimidin-4-one] | 100% | 
N#CCCNC(=O)CCCSc1nc2cc[nH]c2c(=O)n1-c1ccc(OCC2CCC2)cc1 [Example 82, N-(2-cyanoethyl)-4-({3-[4-(cyclobutylmethoxy)phenyl]-4-oxo-4,5-dihydro-3H-pyrrolo[3,2-d]pyrimidin-2-yl}sulfanyl)butanamide] | 101% | 
CS(=O)(=O)CCCSc1nc2cc[nH]c2c(=O)n1-c1ccc(OCC2CC2)cc1 [Example 154, 3-[4-(Cyclopropylmethoxy)phenyl]-2-{[3-(methylsulfonyl)propyl]sulfanyl}-3,5-dihydro-4H-pyrrolo[3,2-d]pyrimidin-4-one] | 99% | 
O=C1Cc2c(nc(SCC3CCC3)n(-c3ccc(OCC(F)(F)F)cc3)c2=O)N1 [Example 296, 2-[(Cyclobutylmethyl)sulfanyl]-3-[4-(2,2,2-trifluoroethoxy)phenyl]-5,7-dihydro-3H-pyrrolo[2,3-d]pyrimidine-4,6-dione] | 101% | 
N#CCCCCCSc1nc2cc[nH]c2c(=O)n1-c1ccc(OCC(F)(F)F)cc1 [Example 88, 6-({4-Oxo-3-[4-(2,2,2-trifluoroethoxy)phenyl]-4,5-dihydro-3H-pyrrolo[3,2-d]pyrimidin-2-yl}sulfanyl)hexanenitrile] | 100% | 
O=C1Cc2c(nc(SCCC3CC3)n(-c3ccc(OCC(F)(F)F)cc3)c2=O)N1 [Example 329, 2-[(2-Cyclopropylethyl)sulfanyl]-3-[4-(2,2,2-trifluoroethoxy)phenyl]-5,7-dihydro-3H-pyrrolo[2,3-d]pyrimidine-4,6-dione] | 101% | 
CCOc1ccc(-n2c(SCCCCC(=O)NCCC#N)nc3cc[nH]c3c2=O)cc1 [Example 65, N-(2-cyanoethyl)-5-{[3-(4-ethoxyphenyl)-4-oxo-4,5-dihydro-3H-pyrrolo[3,2-d]pyrimidin-2-yl]sulfanyl}pentanamide] | 97% | 
O=C1Cc2c(nc(OCC(F)(F)F)n(-c3ccc(OCC(F)(F)F)cc3)c2=O)N1 [Example 274, 2-(2,2,2-Trifluoroethoxy)-3-[4-(2,2,2-trifluoroethoxy)phenyl]-5,7-dihydro-3H-pyrrolo[2,3-d]pyrimidine-4,6-dione] | 100% | Reduction in atherosclerotic lesion area (%) [1]: 26%; Reduction in body weight (%) [1]: 8%
CC(C)Oc1nc2[nH]ccc2c(=O)n1-c1ccc(OCC(F)(F)F)cc1 [Example 221, 2-(1-Methylethoxy)-3-[4-(2,2,2-trifluoroethoxy)phenyl]-3,7-dihydro-4H-pyrrolo[2,3-d]pyrimidin-4-one] | 104% | 
COCCOCCCSc1nc2cc[nH]c2c(=O)n1-c1ccc(OCC(F)(F)F)cc1 [Example 78, 2-{[3-(2-Methoxyethoxy)propyl]sulfanyl}-3-[4-(2,2,2-trifluoroethoxy)phenyl]-3,5-dihydro-4H-pyrrolo[3,2-d]pyrimidin-4-one] | 101% | 
CC1(COc2ccc(-n3c(SCCCC(=O)NCCC#N)nc4cc[nH]c4c3=O)cc2)CC1 [Example 93, N-(2-cyanoethyl)-4-[(3-{4-[(1-methylcyclopropyl)methoxy]phenyl}-4-oxo-4,5-dihydro-3H-pyrrolo[3,2-d]pyrimidin-2-yl)sulfanyl]butanamide] | 101% | 
O=c1c2[nH]ccc2nc(SCCCOC2CCOCC2)n1-c1ccc(OCC2CC2)cc1 [Example 157, 3-[4-(Cyclopropylmethoxy)phenyl]-2-{[3-(tetrahydro-2H-pyran-4-yloxy)propyl]sulfanyl}-3,5-dihydro-4H-pyrrolo[3,2-d]pyrimidin-4-one] | 101% | 
O=C1Cc2c(nc(SCC3CC3)n(-c3ccc(OCC(F)(F)F)c(F)c3)c2=O)N1 [Example 322, 2-[(Cyclopropylmethyl)sulfanyl]-3-[3-fluoro-4-(2,2,2-trifluoroethoxy)phenyl]-5,7-dihydro-3H-pyrrolo[2,3-d]pyrimidine-4,6-dione] | 101% | 
O=C1Cc2c(nc(Oc3ccc(F)cc3)n(-c3ccc(OCC(F)(F)C(F)(F)F)cc3)c2=O)N1 [Example 311, 2-(4-Fluorophenoxy)-3-[4-(2,2,3,3,3-pentafluoropropoxy)phenyl]-5,7-dihydro-3H-pyrrolo[2,3-d]pyrimidine-4,6-dione] | 98% | 
COCCOCCCSc1nc2cc[nH]c2c(=O)n1-c1ccc(OCC2CC2)cc1 [Example 141, 3-[4-(Cyclopropylmethoxy)phenyl]-2-{[3-(2-methoxyethoxy)propyl]sulfanyl}-3,5-dihydro-4H-pyrrolo[3,2-d]pyrimidin-4-one] | 100% | 
CCCCOc1nc2[nH]ccc2c(=O)n1-c1ccc(OCC(F)(F)F)cc1 [Example 287, 2-Butoxy-3-[4-(2,2,2-trifluoroethoxy)phenyl]-3,7-dihydro-4H-pyrrolo[2,3-d]pyrimidin-4-one] |  | Inhibitory activity at 10 μM (%) (delta-5-desaturase; 10 µM): 98%
CCSc1nc2[nH]c(Br)cc2c(=O)n1-c1ccc(OCC(F)(F)F)cc1 [Example 232, 6-Bromo-2-(ethylsulfanyl)-3-[4-(2,2,2-trifluoroethoxy)phenyl]-3,7-dihydro-4H-pyrrolo[2,3-d]pyrimidin-4-one] | 96% | 
CC(C)(O)CCSc1nc2cc[nH]c2c(=O)n1-c1ccc(OCC(F)(F)F)cc1 [Example 131, 2-[(3-Hydroxy-3-methylbutyl)sulfanyl]-3-[4-(2,2,2-trifluoroethoxy)phenyl]-3,5-dihydro-4H-pyrrolo[3,2-d]pyrimidin-4-one] | 108% | 
N#CCCNC(=O)CCCSc1nc2[nH]ccc2c(=O)n1-c1ccc(OCC2CCC2)cc1 [Example 183, N-(2-cyanoethyl)-4-({3-[4-(cyclobutylmethoxy)phenyl]-4-oxo-4,7-dihydro-3H-pyrrolo[2,3-d]pyrimidin-2-yl}sulfanyl)butanamide] | 99% | 
CCOCCCSc1nc2c(c(=O)n1-c1ccc(OCC(F)(F)F)cc1)CC(=O)N2 [Example 302, 2-[(3-Ethoxypropyl)sulfanyl]-3-[4-(2,2,2-trifluoroethoxy)phenyl]-5,7-dihydro-3H-pyrrolo[2,3-d]pyrimidine-4,6-dione] | 94% | 
CC(C)(C)COc1ccc(-n2c(SCCCC(=O)NCCC#N)nc3[nH]ccc3c2=O)cc1 [Example 174, N-(2-cyanoethyl)-4-({3-[4-(2,2-dimethylpropoxy)phenyl]-4-oxo-4,7-dihydro-3H-pyrrolo[2,3-d]pyrimidin-2-yl}sulfanyl)butanamide] | 100% | 
O=c1c2[nH]ccc2nc(SCCC2(O)CCOCC2)n1-c1ccc(OCC2CC2)cc1 [Example 155, 3-[4-(Cyclopropylmethoxy)phenyl]-2-{[2-(4-hydroxytetrahydro-2H-pyran-4-yl)ethyl]sulfanyl}-3,5-dihydro-4H-pyrrolo[3,2-d]pyrimidin-4-one] | 99% | 

From patent US20100190747A1, “Fused ring compound and use thereof” (priority 2009, published 2010)
